Assay results published in ChEMBL document CHEMBL1201862, “PubChem BioAssay data set” (2004).
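96-well plates; 48 h exposure; 5 concentrations. Endpoints by linear interpolation between flanking doses. Not reached: highest tested concentration assigned. Abbreviation: GI50, concentration required for 50% inhibition of growth.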 Calls of active or inactive are those of the source. Rule as the data show it: active = GI50 up to about 1.1 µM and inactive = higher.

Key:
Assay in all cases: inhibition of tumour cell growth, NCI panel, 48 h
[1] = system: A498
[2] = system: NCI-H226
[3] = system: SF-539
[4] = system: Malme-3M
[5] = system: MDA-MB-231
[6] = system: SN12C
[7] = system: OVCAR-5
[8] = system: SK-MEL-5
[9] = system: HCC 2998
[10] = system: SNB-19
[11] = system: NCI-H23
[12] = system: MDA-MB-435
[13] = system: U-251
[14] = system: NCI-H460
[15] = system: PC-3
[16] = system: NCI-H522
[17] = system: T47D
[18] = system: NCI/ADR-RES
[19] = system: DU-145
[20] = system: EKVX
[21] = system: UO-31
[22] = system: HT-29
[23] = system: HOP-62
[24] = system: SF-268
[25] = system: HCT-116
[26] = system: RPMI-8226
[27] = system: SR
[28] = system: OVCAR-4
[29] = system: Hs-578T
[30] = system: OVCAR-8
[31] = system: SF-295
[32] = system: CCRF-CEM
[33] = system: LOX IMVI
[34] = system: SK-MEL-28
[35] = system: TK-10
[36] = system: MDA-N
[37] = system: K562
[38] = system: SK-MEL-2
[39] = system: HL-60
[40] = system: A549
[41] = system: ACHN
[42] = system: RXF 393
[43] = system: M14
[44] = system: OVCAR-3
[45] = system: HCT-15
[46] = system: 786-0
[47] = system: CAKI-1
[48] = system: MOLT-4
[49] = system: KM12
[50] = system: IGROV-1
[51] = system: UACC-257
[52] = system: MCF7
[53] = system: COLO 205
[54] = system: HOP-92
[55] = system: SNB-75
[56] = system: SK-OV-3

Question: How did the GI50 [1] turn out when `O=[N+]([O-])c1cc(C2ON=C(c3ccccc3)N2C23CC4CC(CC(C4)C2)C3)ccc1Cl` (stereo unspecified) was run?
Answer: > 100 µM (inactive)

Question: And the GI50 [2]?
Answer: 49.5 µM (inactive)

Question: And the GI50 [3]?
Answer: > 100 µM (inactive)

Question: What about the GI50 [4] of the same compound?
Answer: > 100 µM (inactive)

Question: What about the GI50 [5] of the same compound?
Answer: > 100 µM (inactive)

Question: And the GI50 [6]?
Answer: > 100 µM (inactive)

Question: What about the GI50 [7] of the same compound?
Answer: > 100 µM (inactive)

Question: What about the GI50 [8] of the same compound?
Answer: > 100 µM (inactive)

Question: What about the GI50 [9] of the same compound?
Answer: > 100 µM (inactive)

Question: And the GI50 [10]?
Answer: > 100 µM (inactive)

Question: And the GI50 [11]?
Answer: > 100 µM (inactive)

Question: What about the GI50 [12] of the same compound?
Answer: > 100 µM (inactive)

Question: What about the GI50 [13] of the same compound?
Answer: > 100 µM (inactive)

Question: And the GI50 [14]?
Answer: > 100 µM (inactive)

Question: What about the GI50 [15] of the same compound?
Answer: > 100 µM (inactive)

Question: And the GI50 [16]?
Answer: > 100 µM (inactive)

Question: What about the GI50 [17] of the same compound?
Answer: > 100 µM (inactive)

Question: What about the GI50 [18] of the same compound?
Answer: > 100 µM (inactive)

Question: What about the GI50 [19] of the same compound?
Answer: > 100 µM (inactive)

Question: What about the GI50 [20] of the same compound?
Answer: > 100 µM (inactive)

Question: And the GI50 [21]?
Answer: > 100 µM (inactive)

Question: And the GI50 [22]?
Answer: > 100 µM (inactive)

Question: What about the GI50 [23] of the same compound?
Answer: > 100 µM (inactive)

Question: What about the GI50 [24] of the same compound?
Answer: > 100 µM (inactive)

Question: And the GI50 [25]?
Answer: 73.5 µM (inactive)

Question: And the GI50 [26]?
Answer: > 100 µM (inactive)

Question: What about the GI50 [27] of the same compound?
Answer: > 100 µM (inactive)

Question: And the GI50 [28]?
Answer: > 100 µM (inactive)

Question: And the GI50 [29]?
Answer: > 100 µM (inactive)

Question: What about the GI50 [30] of the same compound?
Answer: > 100 µM (inactive)

Question: And the GI50 [31]?
Answer: > 100 µM (inactive)

Question: What about the GI50 [32] of the same compound?
Answer: > 100 µM (inactive)

Question: And the GI50 [33]?
Answer: > 100 µM (inactive)

Question: What about the GI50 [34] of the same compound?
Answer: > 100 µM (inactive)

Question: What about the GI50 [35] of the same compound?
Answer: > 100 µM (inactive)

Question: And the GI50 [36]?
Answer: > 100 µM (inactive)

Question: What about the GI50 [37] of the same compound?
Answer: > 100 µM (inactive)

Question: What about the GI50 [38] of the same compound?
Answer: > 100 µM (inactive)

Question: And the GI50 [39]?
Answer: > 100 µM (inactive)

Question: What about the GI50 [40] of the same compound?
Answer: > 100 µM (inactive)

Question: And the GI50 [41]?
Answer: > 100 µM (inactive)

Question: What about the GI50 [42] of the same compound?
Answer: > 100 µM (inactive)

Question: What about the GI50 [43] of the same compound?
Answer: > 100 µM (inactive)

Question: And the GI50 [44]?
Answer: > 100 µM (inactive)

Question: And the GI50 [45]?
Answer: > 100 µM

Question: What about the GI50 [46] of the same compound?
Answer: > 100 µM (inactive)

Question: And the GI50 [47]?
Answer: > 100 µM (inactive)

Question: And the GI50 [48]?
Answer: > 100 µM (inactive)

Question: And the GI50 [49]?
Answer: > 100 µM (inactive)

Question: What about the GI50 [50] of the same compound?
Answer: > 100 µM (inactive)

Question: And the GI50 [51]?
Answer: > 100 µM (inactive)

Question: And the GI50 [52]?
Answer: 2.74 µM (inactive)

Question: What about the GI50 [53] of the same compound?
Answer: > 100 µM (inactive)

Question: What about the GI50 [54] of the same compound?
Answer: > 100 µM (inactive)

Question: What about the GI50 [55] of the same compound?
Answer: 15.5 µM (inactive)

Question: What about the GI50 [56] of the same compound?
Answer: > 100 µM (inactive)
